Measurements taken from publication PMC5006944 (Cell, 2016).

How the values were obtained:
[1] = target: GST-RBD (AA 1–149) of c-RAF (Homo sapiens, UniProt P04049); assay: Differential scanning fluorimetry; format: binding; conditions: DSF
[2] = target: c-RAF/B-RAF heterodimer (Homo sapiens, UniProt P04049+P15056); assay: c-RAF/B-RAF co-immunoprecipitation after EGF stimulation; format: cell-based; conditions: EGF-stimulated HeLa and A431 cells
[3] = system: GTP-RAS in HeLa and A431 cell lines; assay: Active RAS pull-down after EGF stimulation, wild-type RAS cells; format: cell-based; conditions: serum-starved HeLa and A431 cells, 2 μM
[4] = system: MEK and ERK phosphorylation in HeLa and A431 cells; assay: MEK and ERK phosphorylation western blot, HeLa and A431 cells; format: cell-based
[5] = system: c-RAF^Ser338 phosphorylation; assay: EGF-induced c-RAF^Ser338 phosphorylation in HCT116 cells; format: cell-based, human; conditions: serum-starved HCT116, EGF 5 min
[6] = target: kinase domain (KD) of c-RAF (AA 306–648) (Homo sapiens, UniProt P04049); assay: Differential scanning fluorimetry; format: binding; conditions: DSF
[7] = system: c-RAF kinase activity in HeLa and A431 cells; assay: RAF kinase activity of c-RAF immunoprecipitates from EGF-stimulated cells; format: cell-based; conditions: pre-treatment of cells; MEK substrate
[8] = target: PLK1 association with c-RAF^Ser338 (Homo sapiens, UniProt P04049); assay: PLK1 immunoprecipitation, associated c-RAF^Ser338 in HCT116 cells; format: cell-based; conditions: HCT116, anti-PLK1 immunoprecipitation
[9] = target: recombinant Ral-GDS RBD (Homo sapiens, UniProt Q12967); assay: DSF and biotin-RGS pull-down, Ral-GDS RBD; format: binding; conditions: DSF and pull-down with biotin-RGS conjugate
[10] = target: GST-tagged B-RAF RBD (aa 151–230) (Homo sapiens, UniProt P15056); assay: Microscale thermophoresis
[11] = system: PLK1; conditions: subsequent experiments by us and others; ref Steegmaier et al., 2007; cited from earlier work
[12] = target: GTP-RAS and CRAF-RBD interaction (Homo sapiens, UniProt P04049); assay: In vitro association of GST-RBD with GTP-RAS from EGF-stimulated A431 lysates; format: biochemical; conditions: GST-RBD pre-incubated with increasing concentrations
[13] = system: A549 (K-RAS^G12S) xenograft; assay: A549 xenograft tumor growth; conditions: 100 mg/kg twice daily i.p., 16 days, nude mice
[14] = system: mutant c-RAF RBDs; assay: MST binding to mutant c-RAF RBDs; conditions: V69A
[15] = system: MEK and ERK activation in N-RAS (G12D)-expressing HeLa, HCT-116 and A549 cells; assay: MEK and ERK activation western blot, mutant RAS cells; format: cell-based
[16] = system: HCT116 (K-RAS^G13D) xenograft; assay: HCT116 xenograft tumor growth; conditions: 100 mg/kg twice daily i.p., 16 days, nude mice
[17] = system: HA-tagged mutant N-RAS G12D GTP-RAS in HeLa cells; assay: Active RAS pull-down, HeLa cells expressing mutant N-RAS G12D; format: cell-based; conditions: pre-incubation
[18] = system: c-RAF^Ser338 phosphorylation; assay: c-RAF^Ser338 phosphorylation in synchronized HCT116 cells entering mitosis; format: cell-based, human; conditions: HCT116, released from double thymidine block
[19] = system: PanIN lesions (K-RAS^G12D); assay: Pdx-cre:Kras^+/LSL G12D mouse model of pancreatic intraepithelial neoplasia; format: in vivo; conditions: 14 days
[20] = target: GST-tagged c-RAF RBD (aa 1–149) (Homo sapiens, UniProt P04049); assay: Microscale thermophoresis
[21] = system: MDS patients with monosomy 7 and trisomy 8; conditions: phase III, MDS with monosomy 7 and trisomy 8; ref Garcia-Manero et al., 2016; cited from earlier work
[22] = target: three RAF proteins; assay: In vitro RAF kinase assays; format: biochemical
[23] = system: c-RAF^Ser338, MEK, ERK, and AKT phosphorylation; assay: Western blot of xenograft tumor extracts; format: in vivo, mouse; conditions: tumor extracts vs placebo

Sequence of GST-RBD (AA 1–149) of c-RAF (P04049 1-149): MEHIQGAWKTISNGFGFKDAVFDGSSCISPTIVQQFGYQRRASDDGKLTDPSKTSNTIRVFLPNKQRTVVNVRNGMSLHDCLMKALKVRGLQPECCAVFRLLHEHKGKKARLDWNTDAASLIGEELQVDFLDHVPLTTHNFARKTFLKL
Sequence of kinase domain (KD) of c-RAF (AA 306–648) (P04049 306-648): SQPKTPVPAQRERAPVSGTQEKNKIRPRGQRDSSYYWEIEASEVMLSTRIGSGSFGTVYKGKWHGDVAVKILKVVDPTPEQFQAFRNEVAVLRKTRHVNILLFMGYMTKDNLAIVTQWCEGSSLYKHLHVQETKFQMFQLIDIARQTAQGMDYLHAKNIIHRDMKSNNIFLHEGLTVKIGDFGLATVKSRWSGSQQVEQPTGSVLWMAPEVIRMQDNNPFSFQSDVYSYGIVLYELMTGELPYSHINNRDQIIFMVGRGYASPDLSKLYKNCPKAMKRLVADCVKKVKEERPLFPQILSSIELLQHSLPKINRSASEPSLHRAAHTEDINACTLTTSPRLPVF
Sequence of c-RAF/B-RAF heterodimer (P04049 whole entry): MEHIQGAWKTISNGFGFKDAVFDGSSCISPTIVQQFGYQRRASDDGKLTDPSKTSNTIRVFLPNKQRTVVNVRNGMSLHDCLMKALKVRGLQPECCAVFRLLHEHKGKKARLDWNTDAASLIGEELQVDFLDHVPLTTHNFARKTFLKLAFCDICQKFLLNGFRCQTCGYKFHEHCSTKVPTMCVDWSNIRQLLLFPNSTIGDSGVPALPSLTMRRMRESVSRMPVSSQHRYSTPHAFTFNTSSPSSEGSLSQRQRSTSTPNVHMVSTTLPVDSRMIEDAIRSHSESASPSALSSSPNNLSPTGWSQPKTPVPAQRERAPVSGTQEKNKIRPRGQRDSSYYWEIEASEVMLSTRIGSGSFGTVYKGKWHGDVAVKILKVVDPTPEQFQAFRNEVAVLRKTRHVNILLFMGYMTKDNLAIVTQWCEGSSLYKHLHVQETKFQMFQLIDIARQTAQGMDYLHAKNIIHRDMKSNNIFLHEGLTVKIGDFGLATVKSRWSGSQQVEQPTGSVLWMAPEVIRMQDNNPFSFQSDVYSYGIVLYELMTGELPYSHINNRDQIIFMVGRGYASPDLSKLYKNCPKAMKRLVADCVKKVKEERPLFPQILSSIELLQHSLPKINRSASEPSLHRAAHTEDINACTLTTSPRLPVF
Sequence of c-RAF/B-RAF heterodimer (P15056 whole entry): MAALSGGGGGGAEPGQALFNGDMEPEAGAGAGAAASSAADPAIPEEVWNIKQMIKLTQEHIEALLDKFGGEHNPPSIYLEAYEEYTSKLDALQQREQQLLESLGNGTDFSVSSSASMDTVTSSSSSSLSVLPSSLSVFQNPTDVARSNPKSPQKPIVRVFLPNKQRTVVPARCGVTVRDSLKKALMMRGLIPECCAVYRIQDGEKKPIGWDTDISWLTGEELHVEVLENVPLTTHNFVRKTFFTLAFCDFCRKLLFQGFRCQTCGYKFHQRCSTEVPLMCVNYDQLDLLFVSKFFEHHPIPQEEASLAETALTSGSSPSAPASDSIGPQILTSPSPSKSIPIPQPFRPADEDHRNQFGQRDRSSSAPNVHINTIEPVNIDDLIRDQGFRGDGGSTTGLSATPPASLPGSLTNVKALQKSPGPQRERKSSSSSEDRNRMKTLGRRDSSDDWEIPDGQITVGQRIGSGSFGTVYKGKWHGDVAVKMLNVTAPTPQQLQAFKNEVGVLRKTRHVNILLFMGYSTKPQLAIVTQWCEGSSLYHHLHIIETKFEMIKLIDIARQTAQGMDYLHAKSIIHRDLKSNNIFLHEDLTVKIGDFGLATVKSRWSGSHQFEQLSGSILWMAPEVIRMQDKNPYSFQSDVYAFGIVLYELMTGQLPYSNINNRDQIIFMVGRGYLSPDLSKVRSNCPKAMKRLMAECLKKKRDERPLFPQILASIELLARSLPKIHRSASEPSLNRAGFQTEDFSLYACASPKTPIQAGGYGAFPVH
Sequence of PLK1 association with c-RAF^Ser338 (P04049 whole entry): as the sequence (P04049 whole entry) above
Sequence of GTP-RAS and CRAF-RBD interaction (P04049 56-131 limits assumed): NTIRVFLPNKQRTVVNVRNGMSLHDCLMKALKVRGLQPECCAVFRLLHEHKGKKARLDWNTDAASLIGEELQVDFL
Sequence of GST-tagged c-RAF RBD (aa 1–149) (P04049 1-149): as the sequence (P04049 1-149) above
Sequence of GST-tagged B-RAF RBD (aa 151–230) (P15056 151-230): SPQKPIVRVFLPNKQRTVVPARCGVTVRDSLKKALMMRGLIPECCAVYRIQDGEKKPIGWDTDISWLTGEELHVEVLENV
Sequence of recombinant Ral-GDS RBD (Q12967 798-885 limits assumed): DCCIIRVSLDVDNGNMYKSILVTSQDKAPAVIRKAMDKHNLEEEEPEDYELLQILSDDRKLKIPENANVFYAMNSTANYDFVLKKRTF

## CCCS(=O)(=O)Nc1ccc(F)c(C(=O)c2c[nH]c3ncc(-c4ccc(Cl)cc4)cc23)c1F [PLX4032, vemurafenib, reference compound]
[1]
  interaction with c-RAF RBD (change in Tm): not with the RBD
[2]
  c-RAF/B-RAF heterodimer formation: enhanced the association
[3]
  GTP-RAS pulled down by GST-RBD after EGF stimulation: GTP-RAS could readily be pulled down
[4]
  phosphorylation status of MEK and ERK: a small increase or no change
[5]
  EGF-induced c-RAF^Ser338 phosphorylation: little or no effect
[6]
  interaction with c-RAF kinase domain (thermal shift): strong thermal shift
[7]
  EGF-induced activation of RAF kinase activity: enhancement

## COc1cc(OC)c(/C=C/S(=O)(=O)Cc2ccc(OC)c(NCC(=O)O)c2)c(OC)c1 [RGS, rigosertib]
[8]
  association of PLK1 with c-RAF^Ser338: little or no association
[1]
  interaction with c-RAF RBD (change in Tm): bound to RGS
[2]
  c-RAF/B-RAF heterodimer formation: nearly complete inhibition
[3]
  GTP-RAS pulled down by GST-RBD after EGF stimulation: very little or no GTP-RAS could be precipitated
[4]
  phosphorylation status of MEK and ERK: reduction in MEK and ERK phosphorylation
[9]
  binding to Ral-GDS RBD: binds to recombinant Ral-GDS RBD, in a concentration-dependent manner
[10]
  Kd: 0.71 nM
[11]
  PLK1 kinase activity: does not directly inhibit
[12]
  association of GST-RBD with activated RAS: inhibition of its association with activated RAS in a concentration-dependent manner
[13]
  tumor growth: dramatically decreased tumor growth
[14]; mutants K65A, V70A, and V88A, increased Kd values in MST
  binding affinity to c-RAF RBD mutants with reduced RAS binding: reduced binding affinities
[14]; mutations T57A, R67A, L62A, V69G, and T68A
  binding to c-RAF RBD mutants that abolished RAS binding: disrupted binding
[5]
  EGF-induced c-RAF^Ser338 phosphorylation: completely inhibited
[15]
  MEK and ERK activation: inhibits MEK and ERK activation equally well
[16]
  tumor growth: dramatically decreased tumor growth
[17]
  levels of mutant GTP-RAS bound to GST-RBD: no effect on the levels of GTP-RAS
[18]
  reduction of c-RAF^Ser338 phosphorylation: 90%
[19]; 200 mg/kg twice daily i.p.
  decrease in number of PanIN 1B, 2, and 3 grade tumors: statistically significant
  number of pancreatic lesions, less than placebo-treated group: ~ 3 fold
[19]; 200 mg/kg twice daily
  cleaved caspase-3-positive cells in PanIN lesions, greater than control: ~4 fold
[19]; immunohistochemistry, 200 mg/kg twice daily
  phosphorylated ERK and AKT^Ser473 in PanINs: markedly decreased levels
[20]
  Kd: 0.18 nM
[21]
  hazard ratio for survival: 0.25–0.30
[6]
  interaction with c-RAF kinase domain (thermal shift): did not interact
[22]
  kinase activity of the three RAF proteins in in vitro assays: does not inhibit
[23]
  c-RAF^Ser338, MEK, ERK, and AKT phosphorylation in tumors: dramatically reduced
[7]
  EGF-induced activation of RAF kinase activity: inhibits EGF-induced activation of RAF kinase activity

## COC(=O)Nc1nc2ccc(C(=O)c3cccs3)cc2[nH]1 [nocadazole, nocodazole, reference compound]
[8]
  association of PLK1 with c-RAF^Ser338: strong association
